This is an account of results in patent publication US12071624B2, “Antisense oligonucleotide targeting ARL4C molecule, and nucleic acid drug using antisense oligonucleotide” (OSAKA UNIVERSITY, priority 2018, dated 2024).

[AmNA] = 2',4'-bridged nucleic acid with N-methyl amide bridge (AmNA); d = 2'-deoxy (DNA)

The subject of data set [1] is HLE cells. Nature of the data set: Cell proliferation assay (CyQUANT NF) in HLE cells. As to conditions: HLE cells transfected with ASO at 25 nM. In kind it is cell-based. Here is the method: (§1) HLE cells, HCT116 cells, and A549 cells were transfected with 25 to 50 nM ASO and 10 to 20 nM siRNA using Lipofectamine 3000 (Invitrogen, Carlsbad, CA, USA) or RNAiMAX (Invitrogen). Transfected cells were used in the experiments 36 to 48 hours after the end of the transfection.
The cell proliferation assays were performed using the CyQUANT NF Cell Proliferation Assay Kits (Thermo Fisher Scientific), in the way recommended by the manufacturer.
HLE cells were transfected with control ASO, ASO-1316 and ASO-3223 at 25 nM and a proliferation assay was performed; the results of the assay are shown in (e) of FIG. 4.
HLE cells were transfected with control siRNA and PIK3CD siRNA (siRNA against PIK3CD) at 20 nM, and a proliferation assay was performed; the results are shown in (e) of FIG. 5. In addition, an anti-phosphorylated AKT antibody and an anti-AKT antibody as probes were caused to act on cell lysates of HLE cells transfected with control siRNA and PIK3CD siRNA; the results are shown in FIG. 5 (f). HLE cells were transfected with control siRNA and PIK3CD siRNA (siRNA against PIK3CD) at 20 nM and the PIK3CD mRNA amount was measured by real-time PCR; the results are shown in (c) of FIG. 7.

Another data set deals with FBXL19 mRNA. Put plainly: Off-target gene mRNA by real-time PCR in HLE cells (FBXL19). In kind it is cell-based, human. As to conditions: HLE cells transfected at 25 nM. The procedure:
(§2) Potential off-target genes in ARL4C ASO (hARL4C ASO-1316-AmNA [15-mer] (ARL4C ASO-1316) and hARL4C-3223-AmNA [19-mer] (ARL4C ASO-3223)) were identified by using database “Human Genomic plus Transcript (Human G+T)” (Build 2.7.1) as well as basic local alignment search tools (BLAST+programs) using MegaBlast algorithm.
(§3) Cell migration assays and quantitative real-time PCR analyses were performed according to the methods reported by Fujii S et al. (Oncogene 2015; 34: 4834-44).
(§4) Four genes of neurolysin (NLN), sapiens F-box and leucine-rich repeat protein 19 (FBXL19), keratin-associated protein 15-1 (KRTAP15-1), and sialic acid binding Ig-like lectin 6 (SIGLEC6) were identified as candidates for off-target genes of ASO-1316 and ASO-3223 by in silico analysis. HLE cells were transfected with ASO-1316 and ASO-3223 at 25 nM each, and mRNA amounts of NLN and FBXL19 were measured by real-time PCR; the results are shown in (d) of FIG. 3. […] In addition, KRTAP15-1 and SIGLEC6 were only slightly expressed in the HLE cells (data not shown).
On the technique in general: Real-time PCR tracks product formation cycle by cycle.

A further data set concerns neurolysin (NLN) mRNA. Nature of the data set: Off-target gene mRNA by real-time PCR in HLE cells (NLN). In kind it is cell-based, human. As to conditions: HLE cells transfected at 25 nM. The procedure:
as §2, §3, §4

Data set [2] has as its system HLE cells. Nature of the data set: Primary liver tumor model, HLE cells transplanted into mouse liver. In kind it is in vivo. As to conditions: for HLE tumorigenesis in the liver: 50 μg/body subcutaneously twice a week from day 0, 29 days after transplantation. Here is the method: Pellets of HLE cells (1×10^7 cells) were suspended in 100 μl of Matrigel matrix high concentration (BD Biosciences, San Jose, CA, USA) and were injected into the livers of 8-week-old male nude mice (BALB/cAJcl-nu/nu, CLEA Japan, Inc.) under anesthesia (day 0). From day 0, ASO (50 μg/body; about 2.5 mg/kg) was subcutaneously administered twice a week. Mice were euthanized 29 days after the HLE cell transplantation, and tumors were recovered and subjected to histological analysis.
In a primary liver tumor model in which HLE cells were directly transplanted into the liver, influences of the subcutaneous administration of ARL4C ASO (ASO-1316 and ASO-3223) on liver tumors was examined.
In experiments in the primary liver tumor model, Matrigel containing HEL cells at a high concentration was injected into the liver of a mouse (day 0), and control ASO, ASO-1316, and ASO-3223 were subcutaneously administered on and after day 0, at a frequency of twice a week. The tumor formed in the liver was observed when 29 days had elapsed since the transplantation; the result is shown in (a) of FIG. 8. In addition, when 29 days had elapsed since the transplantation, the tumor formed in the liver was immunostained with an anti-ARL4C antibody and an anti-PIK3CD antibody, the result of which is shown in (b) of FIG. 8, and the tumor was immunostained with an anti-Ki-67 antibody, the result of which is shown in (c) of FIG. 8.

Data set [3] deals with HLE cells. Put plainly: Cell migration assay in HLE/GFP and HLE/ARL4C-GFP cells. In kind it is cell-based. As to conditions: HLE/GFP or HLE/ARL4C-GFP cells transfected at 25 nM.
Text: HLE cells allowing for the stable expression of GFP (HLE/GFP cells), HLE cells allowing for the stable expression of ARL4c-GFP with GFP fused to the C-terminal side (HLE/ARL4C-GFP cells, i.e., cells in which ARL4C-GFP is transduced and stably expressed), HCT116 cells allowing for the stable expression of luciferase (HCT116/Luc cells), A549 cells allowing for the stable expression of luciferase (A549/Luc cells), and S2-CP8 cells allowing for the stable expression of luciferase (S2-CP8/Luc cells) were produced using lentivirus according to the method reported by Matsumoto S et al. (EMBO J 2014; 33: 702-18) and Fujii S et al. (Oncogene 2015; 34: 4834-44). In addition, ARL4C-GFP is ARL4C with GFP fused thereto.
as §1
Cell migration assays and quantitative real-time PCR analyses were performed according to the methods reported by Fujii S et al. (Oncogene 2015; 34: 4834-44). […]

In a further data set the test system is HCT116 cells. Nature of the data set: Cell migration assay in HCT116 cells. In kind it is cell-based. As to conditions: HCT116 cells transfected at 25 nM. The procedure:
as §1, §3
In addition, HCT116 cells were transfected with control ASO, ASO-1316 and ASO-3223 at 25 nM, and a cell migration assay was carried out; the results are shown in (e) of FIG. 3.

For data set [4], the system named is nuclear localization of YAP in A549 cells. Nature of the data set: Anti-YAP/TAZ antibody staining in A549 cells. In kind it is cell-based, human. As to conditions: A549 cells transfected at 25 nM. Here is the method: as §1
HLE cells or A549 cells were transfected with control ASO, ASO-1316, and ASO-3223 at 25 nM, and were stained with an anti-YAP/TAZ antibody; the results are shown in (c) of FIG. 6.

[5] abbreviates: subcutaneous twice a week, day 29.

“ASO-1316: 15-mer AmNA/phosphorothioate ASO targeting ARL4C, base sequence SEQ ID NO: 1 gcatacctcaggtaa; Table 1 SEQ ID NO 13 (antisense GCATACCTCAGGTAA; AmNA and phosphorothioate modified, pattern not given here)”: the cell proliferation entry in the data set on HLE cells [1] is reported as “inhibit HLE cells from proliferating”. In addition, the “FBXL19 mRNA amount (off-target)” value in the data set on FBXL19 mRNA was “did not significantly affect the expression”. In addition, the “NLN mRNA amount (off-target)” value in the data set with neurolysin (NLN) mRNA was “did not significantly affect the expression”. In addition, the “HLE tumorigenesis in the liver” value with HLE cells [2] is on record as “able to suppress the HLE tumorigenesis”. Besides, the “tumor size as compared with the control ASO” value with HLE cells [2] (50 μg/body subcutaneously twice a week, day 29) is on record as “reduce the tumor size by half”. In the data set with HLE cells [2] (setting [5]), the “expression of ARL4C in tumors formed in the liver (immunostaining)” value was “suppress the expression of ARL4C and PIK3CD”; the “expression of PIK3CD in tumors formed in the liver (immunostaining)” value was “suppress the expression of ARL4C and PIK3CD”; the “histological damage or cell death in the non-tumor area of the liver” value was “did not induce histological damage or cell death”; the “number of Ki-67-positive cells in liver tumors” value is “reduce the number of Ki-67-positive cells”. In addition, the cell migration entry in the data set with HLE cells [3] is listed as “suppress the migration of HLE cells”. The cell migration result in the data set on HCT116 cells is recorded as “suppress the migration of HCT116 cells”. The “nuclear localization of YAP” value in data set [4] is recorded as “inhibited the nuclear localization of YAP”.
Regarding “ASO-3223: 19-mer ARL4C ASO of Table 1, SEQ ID NO 55 (antisense NNNGGTTACAGTATTTNNC; sugars from the 5' end [AmNA]3 d13 [AmNA]2 d1, backbone, methylation of C and the base at N not given here; further chemistry not fully specified)”, the cell proliferation result in the data set with HLE cells [1] is recorded as “inhibit HLE cells from proliferating”. Moreover, in the data set on FBXL19 mRNA, the “FBXL19 mRNA amount (off-target)” value is “did not significantly affect the expression”. Moreover, the “NLN mRNA amount (off-target)” value in the data set with neurolysin (NLN) mRNA is listed as “did not significantly affect the expression”. The “HLE tumorigenesis in the liver” value in the data set with HLE cells [2] is “almost no influence”. Moreover, in the data set on HLE cells [2] (primary liver tumor model), the “antitumor effect in vivo” value was “no antitumor effect was observed”. Besides, in the data set on HLE cells [2] (setting [5]), the “expression of ARL4C in tumors formed in the liver (immunostaining)” value is given as “almost no influence”, the “expression of PIK3CD in tumors formed in the liver (immunostaining)” value is “almost no influence” and the “number of Ki-67-positive cells in liver tumors” value is reported as “almost no influence”. The cell migration entry in the data set with HLE cells [3] is reported as “suppress the migration of HLE cells”. Further, the cell migration result in the data set with HCT116 cells is listed as “suppress the migration of HCT116 cells”. Moreover, the “nuclear localization of YAP” value in data set [4] is on record as “inhibited the nuclear localization of YAP”.
